Here are results for three molecules from patent publication US20250171434A1, “SEC61 INHIBITORS AND USE THEREOF” (KEZAR LIFE SCIENCES, INC., priority 2022, published 2025).

Series [1] can be described thus: Liver Microsome Stability Assay, monkey. As to conditions: monkey liver microsomes 1.0 mg/mL, 1.0 uM compound, 37° C., 1 mM NADPH. It is filed as in vitro ADME. In a few lines: (§1)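 Compound at 1.0 uM (0.4% DMSO) was incubated at 37° C with 1.0 mg/mL liver microsomes in 0.1 M potassium phosphate, with or without 1 mM NADPH. Samples were quenched at 0 and 30 minutes.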

Series [2] has as its system IL-2-FL/Gaussia Luciferase. Description: Dox Inducible IL2-FL-Gluc Assay. It is filed as cell-based. As to conditions: Table 3; for IC50: Flp-In 293 T-REx cells, 24 hours with doxycycline, read-out: 24 hr Dox Inducible IL2FLGluc 293FRT/TO: Mean IC50; for 24 hr Dox Inducible IL2FLGluc 293FRT/TO: IL2/PD1: ratio of IC50s IL2/PD1. In a few lines: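 Flp-In 293 T-REx cells stably carrying doxycycline-inducible full-length IL-2 (aa 1-153) fused at its C-terminus to Gaussia luciferase, selected with hygromycin and blasticidin. Cells were plated the day before, then treated with compounds in DMSO/media containing doxycycline at 37° C, 5% CO2.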

For series [3], the system named is PD1-ss+10aa/Gaussia Luciferase. Description: Dox-Induced PD1-ss-Gluc Assay. It is filed as cell-based. To be noted: Flp-In 293 T-REx cells, 24 hours with doxycycline; Table 3; read-out: 24 hr Dox Inducible PD1ssGluc 293FRT/TO: Mean IC50. In a few lines: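 Flp-In 293 T-REx cells stably carrying a doxycycline-inducible Gaussia luciferase fused to the PD1 signal sequence plus 10 aa were plated the day before. Compound dilutions in DMSO/media containing doxycycline were then added and incubated at 37 °C, 5% CO2. Data for undefined stereochemistry refer to stereoisomer mixtures.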

Series [4] in a line: Liver Microsome Stability Assay, mouse. Type of series: in vitro ADME. As to conditions: mouse liver microsomes 1.0 mg/mL, 1.0 uM compound, 37° C., 1 mM NADPH. In a few lines:
as §1
A general note: Liver microsomes are vesicles of endoplasmic reticulum, rich in cytochrome P450 enzymes.

The test system of series [5] is TNFα-FL/Gaussia Luciferase. Description: Dox Induced TNFα-FL-Gluc Assay. It is filed as cell-based. To be noted: Table 3; for IC50: Flp-In 293 T-REx cells, 24 hours with doxycycline, read-out: 24 hr Dox Inducible TNFaFLGluc 293FRT/TO: Mean IC50; for 24 hr Dox Inducible TNFaFLGluc 293FRT/TO: TNF/PD1: ratio of IC50s TNF/PD1. An excerpt:
(§2) Flp-In 293 T-REx™ cells were transfected with pcDNA™5/FRT/TO plasmid inserted with cDNA encoding Gaussia Luciferase fused to the 3′ end of cDNA encoding full length TNFα (amino acids 1-233). Transfected cells were selected for resistance to the selectable markers Hygromycin and Blasticidin to create a stable cell line that contained the TNFα-FL/Gaussia Luciferase cDNA insert whose expression was regulated under the T-REx™ system. The day before assay, cells were trypsinized and plated in 384-well tissue culture plates. The next day, compound dilutions in DMSO/media containing doxycycline were added to the wells and incubated at 37° C., 5% CO2.
(§3) For chemical structures that include one or more stereoisomers, but are illustrated without indicating stereochemistry, the assay data refers to a mixture of stereoisomers.

Series [6] can be described thus: Liver Microsome Stability Assay, rat. It is filed as in vitro ADME. To be noted: rat liver microsomes 1.0 mg/mL, 1.0 uM compound, 37° C., 1 mM NADPH. The method in brief:
as §1

Series [7] concerns multiple myeloma cell line U266B1. Description: U266 Cell Viability Assay. To be noted: Homo sapiens, U-266; U266B1 cells, 48 hours, Celltiter-Glo; read-out: 48 hr U266 Viability Celltiter-Glo: Mean EC50. It is filed as cell-based. The method in brief: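 Cells grown in RPMI 1640 with 10% FBS, 2 mM glutamine and penicillin/streptomycin were exposed to compound dilutions in DMSO/media for 48 hours at 37° C., 5% CO2. Viability was read by CellTiter-Glo luminescence. Undefined stereocentres mean data for stereoisomer mixtures.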
Background: ATP-based viability assays read luminescence as a measure of living cells.

The nature of series [8]: Liver Microsome Stability Assay, human. It is filed as in vitro ADME. To be noted: human liver microsomes 1.0 mg/mL, 1.0 uM compound, 37° C., 1 mM NADPH. In a few lines: as §1
Series [9] concerns HER3-ss+4aa/Gaussia Luciferase. As to the kind of experiment: Dox-Inducible Her3-ss-Gluc Assay. It is filed as cell-based. To be noted: Flp-In 293 T-REx cells, 24 hours with doxycycline; Table 3; read-out: 24 hr Dox Inducible Her3(ss + 4)Gluc 293FRT/TO: Mean IC50.
Text: as §2, with “HER3 signal sequence plus 4 amino” for “full length TNFα (amino”, “(N-[…]-C) (SEQ ID NO: 2).” for “1-233).”, “HER3-ss+4aa/Gaussia” for “TNFα-FL/Gaussia”
as §3

The subject of series [10] is multiple myeloma cell line NCI-H929. Description: H929 Cell Viability Assay. It is filed as cell-based, human. As to conditions: Homo sapiens; NCI-H929 cells, 48 hours, Celltiter-Glo; read-out: 48 hr H929 Viability Celltiter-Glo: Mean EC50. The method in brief:
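NCI-H929 cells, resuspended in RPMI 1640 with 10% FBS and 2 mM glutamine, were treated with compound dilutions in DMSO/media and incubated 48 hours at 37° C, 5% CO2. Viability was read by CellTiter-Glo luminescence. Compounds drawn without stereochemistry were tested as stereoisomer mixtures.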

In the case of `C/C(=C\c1cn(C(C)C)cn1)c1csc(NC(=O)c2cccn2Cc2ccnc(F)c2)n1` [Compound B24, (E)-1-((2-fluoropyridin-4-yl)methyl)-N-(4-(1-(1-isopropyl-1H-imidazol-4-yl)prop-1-en-2-yl)thiazol-2-yl)-1H-pyrrole-2-carboxamide], the “Liver Microsome Stability (Multiple Species): Monkey - % Remaining after 30 min w/ NADPH (%)” value in series [1] is recorded as <1%. Also, the IC50 in series [2] was > 25 µM; in series [3], 0.54 µM; in [5], > 25 µM; in [9], > 25 µM. In addition, the “24 hr Dox Inducible IL2FLGluc 293FRT/TO: IL2/PD1” value in [2] is listed as >46. In addition, in series [4], the “Liver Microsome Stability (Multiple Species): Mouse - % Remaining after 30 min w/ NADPH (%)” value amounted to 3%. Further, the “24 hr Dox Inducible TNFaFLGluc 293FRT/TO: TNF/PD1” value in series [5] is reported as >46. Moreover, the “Liver Microsome Stability (Multiple Species): Rat - % Remaining after 30 min w/ NADPH (%)” value in series [6] is reported as 1%. In addition, the figures for the EC50 in [7] and in series [10] were 15.3 µM and 13.6 µM, respectively. For the same molecule, the “Liver Microsome Stability (Multiple Species): Human - % Remaining after 30 min w/ NADPH (%)” value in series [8] is 1%.

For `C/C(=C\c1cn(C(C)C)cn1)c1csc(NC(=O)c2cccn2Cc2ccncc2)n1` [Compound B25, (E)-N-(4-(1-(1-isopropyl-1H-imidazol-4-yl)prop-1-en-2-yl)thiazol-2-yl)-1-(pyridin-4-ylmethyl)-1H-pyrrole-2-carboxamide], the “Liver Microsome Stability (Multiple Species): Monkey - % Remaining after 30 min w/ NADPH (%)” value in series [1] was <1%. Further, the IC50 in [2] is > 25 µM; in series [3] it was 0.404 µM; in series [5], > 25 µM; in [9], > 25 µM. Besides, in [2], the “24 hr Dox Inducible IL2FLGluc 293FRT/TO: IL2/PD1” value is recorded as >62. The “Liver Microsome Stability (Multiple Species): Mouse - % Remaining after 30 min w/ NADPH (%)” value in [4] came to 0.05%. The “24 hr Dox Inducible TNFaFLGluc 293FRT/TO: TNF/PD1” value in [5] is >61. Moreover, in series [6], the “Liver Microsome Stability (Multiple Species): Rat - % Remaining after 30 min w/ NADPH (%)” value was <1%. In addition, the EC50 (as a rule, the concentration needed to bring the measured effect to its halfway point) in series [7] was 17.3 µM; in [10] it was 13.7 µM. Moreover, the “Liver Microsome Stability (Multiple Species): Human - % Remaining after 30 min w/ NADPH (%)” value in series [8] is given as <1%.

In the case of `O=C(Nc1nc(/C=C/C2CCCC2)cs1)c1cccn1Cc1ccnc(F)c1` [Compound B26, (E)-N-(4-(2-cyclopentylvinyl)thiazol-2-yl)-1-((2-fluoropyridin-4-yl)methyl)-1H-pyrrole-2-carboxamide], the “Liver Microsome Stability (Multiple Species): Monkey - % Remaining after 30 min w/ NADPH (%)” value in [1] is given as <1%. For the same molecule, the IC50 in [2] is 0.737 µM; in [3] it was 0.117 µM; in series [5], 3.82 µM; in series [9], 0.332 µM. Further, in series [2], the “24 hr Dox Inducible IL2FLGluc 293FRT/TO: IL2/PD1” value is recorded as 6. Also, the “Liver Microsome Stability (Multiple Species): Mouse - % Remaining after 30 min w/ NADPH (%)” value in [4] amounted to 31%. In [5], the “24 hr Dox Inducible TNFaFLGluc 293FRT/TO: TNF/PD1” value is 33. The “Liver Microsome Stability (Multiple Species): Rat - % Remaining after 30 min w/ NADPH (%)” value in series [6] is 10%. Also, the EC50 in [7] was 19.7 µM; in series [10], 7.13 µM. Further, in [8], the “Liver Microsome Stability (Multiple Species): Human - % Remaining after 30 min w/ NADPH (%)” value amounted to 59%.
